How the values were obtained:
[1] = tested on: p53-null mouse sarcoma cells; assay: Murine Mdm2+/+ p53-null sarcoma cells, Western blot and MTT; type: cell-based
DE1069 = assay: Cell death of other cancer cell lines: DE1069; type: cell-based; conditions: DE1069, Sarcoma, Mouse
Method: The PROTACs prepared herein were tested for their use in other cancer cell lines to determine activity in multiple different types of cancer.

MDA-MB-231 mammospheres = assay: Area of formed mammospheres, MDA-MB-231; type: cell-based, human; conditions: MDA-MB-231, 3-fold lower concentration than the MDM2 inhibitors, 72 hr
Method: FIGS. 21A-21E show the apoptosis induction of p53-inactivated TNBC cells in 2D and 3D cultures by the MDM2-PROTAC YX-02-030. A-B. Colony formation assays (A. Triplicate, 12 days) and mammosphere formation (B. Triplicate 72 hrs) of MDA-MB-231 and MDA-MB-436 cells in the presence of the indicated compounds or DMSO control (−); representative pictures shown. C-E. Formed mammospheres of MDA-MB-231 and MDA-MB-436 cells were treated with the compounds indicated or DMSO control (−), and area (C. n=10 mammospheres, relative to pre-treatment area, 72 hr), real-time imaging (IncuCyte) and quantification of Caspase-3/7 activity (D. n=4-5 wells/compound), and survival/ATP assays (E. Quadruplicate, 72 hr) were performed; representative images shown; scale bar 300 m. Mean±SEM (A-C and E). For A, *P<0.0001 and **P<0.0001, comparing 1 M and 2 M PROTAC, respectively, to control compounds and DMSO vehicle control. For B, *P<0.0046, **P<0.0001, and ***P<0.0001, comparing 0.5 M, 1 M, and 2 M PROTAC, respectively, to control compounds and DMSO vehicle control. For C, *P<0.0001 and **P<0.0001, comparing 2 M and 4 M/6 M PROTAC, respectively, to control compounds and DMSO vehicle control. […]
These were then evaluated in 3D culture as to when the YX-02-030 was effective at preventing TNBC cell mammosphere formation and eliminating already formed mammospheres. […]

non-cancerous cells = assay: Western blot and MTT assay, non-cancerous cells
Mdm2-VHL = Mdm2-VHL (Homo sapiens, UniProt P40337+Q00987); assay: AlphaScreen ternary complex formation; type: binding; conditions: GST-MDM2 and HIS-VHL
Chain of Mdm2-VHL (Q00987 whole entry): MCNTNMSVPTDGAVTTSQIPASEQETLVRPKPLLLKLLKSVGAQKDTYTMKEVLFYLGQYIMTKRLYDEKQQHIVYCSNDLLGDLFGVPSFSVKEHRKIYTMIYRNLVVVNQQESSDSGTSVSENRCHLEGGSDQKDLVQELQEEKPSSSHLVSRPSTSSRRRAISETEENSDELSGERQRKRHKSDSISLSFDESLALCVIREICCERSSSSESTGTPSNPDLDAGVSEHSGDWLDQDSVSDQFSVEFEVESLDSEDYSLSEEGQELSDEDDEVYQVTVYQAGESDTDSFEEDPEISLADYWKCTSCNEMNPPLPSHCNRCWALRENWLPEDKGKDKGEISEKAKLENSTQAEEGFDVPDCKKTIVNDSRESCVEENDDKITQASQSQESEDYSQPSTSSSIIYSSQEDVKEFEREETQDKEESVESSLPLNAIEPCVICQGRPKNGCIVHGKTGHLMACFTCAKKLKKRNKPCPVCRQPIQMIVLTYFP
Chain of Mdm2-VHL (P40337 whole entry): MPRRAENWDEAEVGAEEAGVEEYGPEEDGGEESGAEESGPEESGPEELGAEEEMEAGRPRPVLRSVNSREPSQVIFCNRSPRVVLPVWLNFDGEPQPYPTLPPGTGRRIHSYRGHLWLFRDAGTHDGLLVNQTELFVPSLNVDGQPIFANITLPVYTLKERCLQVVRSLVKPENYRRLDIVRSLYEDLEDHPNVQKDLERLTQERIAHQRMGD
Chain of Mdm2-VHL (Q15370 whole entry partner): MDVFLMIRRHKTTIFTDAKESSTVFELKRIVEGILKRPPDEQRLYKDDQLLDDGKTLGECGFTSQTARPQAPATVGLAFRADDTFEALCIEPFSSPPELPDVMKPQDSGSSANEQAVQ
Chain of Mdm2-VHL (Q15369 whole entry partner): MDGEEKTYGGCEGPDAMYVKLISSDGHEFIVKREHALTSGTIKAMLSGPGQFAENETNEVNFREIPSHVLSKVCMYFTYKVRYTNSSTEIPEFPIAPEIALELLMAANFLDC
From the text: A. Chemical structure of MDM2-PROTAC. B-C. MDM2:p53 and MDM2:VHL-HIF1α peptide binding inhibition determined by homogeneous time-resolved fluorescence (HTRF, triplicate, mean±SEM, B) and surface plasmon resonance (SPR, triplicate, mean±SD, C. Binding assays by the indicated compounds. Graphical data is representative of 3 separate experiments. D. AlphaScreen of ternary complex using GST-MDM2 and HIS-VHL; mean±SD. E-F. Western blot analysis for the proteins indicated following a dose-titration (E, 16 hr) and time course (F, 6 μM) with the PROTAC or vehicle control (DMSO, −) in MDA-MB-231 (p53-mutant) and MDA-MB-436 (p53-delete) cells. G-K. Western blot analysis for the proteins indicated following treatment with the MDM2-PROTAC and/or the neddylation activating enzyme inhibitor MLN4924 G.

[2] = tested on: Mdm2-/-p53-/- sarcoma cells; assay: Murine Mdm2-/-p53-/- sarcoma cells, MTT; type: cell-based, mouse; conditions: MTT assay, 48 hrs
From the text: A-B. Murine Mdm2+/+p53-null sarcoma cells treated with Mdm2 PROTAC (YX-02-030), control YX-02-023 (−), or vehicle (DMSO). A. Western blots after 24 hrs (cleaved caspase 3, CC3. Mdm2^−/−p53^−/− fibroblasts were a control for the Western blot). B. Dose response curve (MTT assay, 48 hrs). C. Dose response curves of murine Mdm2^−/−p53^−/− sarcoma cells treated with Mdm2 PROTAC (YX-02-030), negative controls (−), a Bcl2/Bclx/Bclw inhibitor (+), or vehicle control (MTT assay, quadruplicate, 48 hrs- MTT assay, B-C graphed relative to DMSO).

[3] = tested on: TNBC patient mammospheres; assay: Patient TNBC 3D mammosphere cultures; type: cell-based, human
Method: (§1) FIGS. 27A-27E show TP53 mutant TNBC patient-derived explants undergo apoptosis following treatment with the MDM2-PROTAC YX-02-030. A. TP53 sequenced in five fresh TNBC patient samples and used in explant and 3D mammosphere cultures. B-C. TNBC patient-derived explants were treated with the compounds indicated and Western blotting (B) and immunohistochemistry (IHC) of FFPE sections for cleaved Caspase-3 (C, n=3 paired patient samples) were performed. Representative images of H&E and cleaved Caspase-3 (CC3) IHC shown, including normal breast epithelium treated with MDM2-PROTAC YX-02-030; scale bar 300 m. D-E. Mammosphere cultures were established from TNBC patient samples, treated with the indicated compounds, and live-cell detection of Caspase-3/7 activity (D, quadruplicate) and mammosphere survival/ATP production (E, quadruplicate) were measured.
For three of the patient TNBC tumor samples there was enough tissue to also establish 3D mammosphere cultures, and for one of these patients, normal breast epithelial tissue was also received that generated loose cell clusters.

[4] = tested on: TNBC patient-derived explants; assay: Patient-derived TNBC explants; type: cell-based, human
Method: as §1
To assess the effects of YX-02-030 on TNBC patient samples, fresh, surgically-resected tumor from five TNBC patients was obtained, and 80% were from Black/African American patients (FIG. 26). Each tumor had TP53 missense mutations with two having the same hot-spot (R248Q) p53 mutation and one that had 3 TP53 mutations (FIG. 27A). […]

VHL = VHL (Homo sapiens, UniProt P40337); assay: HTRF binding assay for VHL (Table 2)
Chain of VHL (P40337 whole entry): as the sequence (P40337 whole entry) above
Chain of VHL (Q15370 whole entry partner): as the sequence (Q15370 whole entry partner) above
Chain of VHL (Q15369 whole entry partner): as the sequence (Q15369 whole entry partner) above
From the text: Biochemical assays in 384-well format have established to assess the binding of newly synthesized PROTACs to the appropriate E3 ligase using HTRF technology. In these assays an anti-HIS antibody conjugated to terbium was used as the donor fluor, and either a Cy5 labeled small molecule probe, or a biotinylated peptide that is bound to a streptavidin acceptor.

[5] = mammospheres from three patient tumors

Row | SMILES | p73 and apoptosis (cleaved caspase 3) ([1]; Western blots after 24 hrs) | killing of p53-null sarcoma cells ([1]; increasing concentrations, MTT assay, 48 hrs) | IC50 (DE1069) [µM] | reduction of mammosphere area (MDA-MB-231 mammospheres) [%] | sensitivity of non-cancerous cells (non-cancerous cells) | ternary complex formation (Mdm2-VHL) | response of Mdm2-/-p53-/- sarcoma cells [2] | Caspase-3/7 activity [3, 5] | mammosphere survival [3, 5] | effect on normal breast epithelial clusters ([3]; normal breast epithelial tissue of one patient) | apoptosis markers by Western blot ([4]; explants) | MDM2 protein in patient tumors ([4]; within 4 days of treatment) | IC50 (VHL) [µM]
1 | CCOc1cc(C(C)(C)C)ccc1C1=N[C@](C)(c2ccc(Cl)cc2)[C@](C)(c2ccc(Cl)cc2)N1C(=O)N1CCN(CC(=O)NCCOCCOCCOCC(=O)N[C@H](C(=O)N2C[C@H](O)C[C@H]2C(=O)NCc2ccc(-c3scnc3C)cc2)C(C)(C)C)CC1 (racemic) [YX-02-030] | stabilized p73 and induced apoptosis | killed p53-null sarcoma cells | 6.1 | 49.5 | resistant | efficiently form a ternary complex | not responsive | significantly increased Caspase-3/7 activity | reduced survival | remained largely unaffected | increased levels of cleaved Caspase-3 and cleaved PARP | MDM2 protein was lost | –
2 | CCOc1cc(C(C)(C)C)ccc1C1=N[C@](C)(c2ccc(Cl)cc2)[C@](C)(c2ccc(Cl)cc2)N1C(=O)N1CCN(CC(=O)NCCCNC(=O)COc2ccc3c(c2)CN(C(=O)[C@H](NC(=O)[C@@H](C)NC)C(C)(C)C)[C@@H](C(=O)N[C@H]2CCCc4ccccc42)C3)CC1 [YX-02-228, (R)-7-(2-((3-(2-(4-((4R,5S)-2-(4-(tert-butyl)-2-ethoxyphenyl)-4,5-bis(4-chlorophenyl)-4,5-dimethyl-4,5-dihydro-1H-imidazole-1-carbonyl)piperazin-1-yl)acetamido)propyl)amino)-2-oxoethoxy)-2-((R)-3,3-dimethyl-2-((R)-2-(methylamino)propanamido)butanoyl)-N-((S)-1,2,3,4-tetrahydronaphthalen-1-yl)-1,2,3,4-tetrahydroisoquinoline-3-carboxamide] | – | – | – | – | – | – | – | – | – | – | – | – | > 10
